The test has as its target Cathepsin S (Homo sapiens, UniProt P25774). Kind of test: Inhibition of recombinant human cathepsin S.

Cathepsin S, sequence (P25774 whole entry): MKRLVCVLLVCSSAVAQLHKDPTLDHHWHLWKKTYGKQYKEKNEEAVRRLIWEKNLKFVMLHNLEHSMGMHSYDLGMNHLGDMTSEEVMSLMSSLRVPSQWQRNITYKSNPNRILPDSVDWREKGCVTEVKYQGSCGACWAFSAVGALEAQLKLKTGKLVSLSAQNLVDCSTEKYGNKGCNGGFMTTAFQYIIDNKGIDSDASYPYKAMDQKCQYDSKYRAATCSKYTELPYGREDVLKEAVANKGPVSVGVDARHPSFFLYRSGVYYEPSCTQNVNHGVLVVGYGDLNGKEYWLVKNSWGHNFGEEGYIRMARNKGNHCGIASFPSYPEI

Turning to `O=C(N[C@@H](Cc1ccccc1)C(=O)N[C@@H]1C(=O)N[C@@H]1Oc1ccccc1)OCc1ccccc1` [[(S)-1-((3S,4R)-2-Oxo-4-phenoxy-azetidin-3-ylcarbamoyl)-2-phenyl-ethyl]-carbamic acid benzyl ester], the IC50 was less than 0.1 nM.

The record behind these values is BindingDB's records for doi:10.1016/s0960-894x(02)00831-4 (Currently Naeja Pharmaceutical, 2002).
